Data reported in patent US20250171437A1 (Agios Pharmaceuticals,Inc., priority 2022, published 2025).

Target: T1, human PAH with the R408W mutation (A375 R408W cells) (Homo sapiens, UniProt P00439, R408W)
T1 construct: expressed in transfected cells
T1 sequence (P00439 1-452 R408W): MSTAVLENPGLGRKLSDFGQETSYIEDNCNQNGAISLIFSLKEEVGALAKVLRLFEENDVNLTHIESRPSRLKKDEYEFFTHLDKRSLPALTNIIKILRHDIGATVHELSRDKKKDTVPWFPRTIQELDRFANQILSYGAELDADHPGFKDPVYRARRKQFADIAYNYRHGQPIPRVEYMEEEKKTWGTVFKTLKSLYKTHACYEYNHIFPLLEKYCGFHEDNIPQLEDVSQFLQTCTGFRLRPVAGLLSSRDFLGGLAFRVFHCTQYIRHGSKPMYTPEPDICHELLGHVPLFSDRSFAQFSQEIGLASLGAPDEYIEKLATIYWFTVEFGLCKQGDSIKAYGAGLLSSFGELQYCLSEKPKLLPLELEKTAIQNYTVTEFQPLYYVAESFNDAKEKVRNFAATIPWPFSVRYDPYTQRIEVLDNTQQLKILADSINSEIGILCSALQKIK
Assay: Cell Based Phenylalanine Flux Assay
Details: A375 R408W cells; 24 hrs with compound, then 20 μM sepiapterin and 800 μM 13C9,15N-Phenylalanine for 4 hours; 13C-Tyrosine by LC-MS; average where tested multiple times
Procedure, shortened: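 AC50 is derived from LC-MS of 13C-tyrosine in the media after a 4 h pulse of 800 μM 13C9,15N-phenylalanine plus 20 μM sepiapterin. The A375 R408W PAH cells had received duplicate 10-point, 2-fold compound dilutions (0.5% DMSO) for 24 h beforehand.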

| Structure (SMILES) | AC50 [µM] |
| --- | --- |
| O=C(c1cnn2cc(N3CCC(F)CC3)ccc12)N1CCc2[nH]cnc2[C@H]1c1nc2cccc(F)c2o1 [Example 369, (S)-(4-(7-fluorobenzo[d]oxazol-2-yl)-6,7-dihydro-1H-imidazo[4,5-c]pyridin-5(4H)-yl)(6-(4-fluoropiperidin-1-yl)pyrazolo[1,5-a]pyridin-3-yl)methanone] | ≤ 0.5 |
| O=C(c1ocnc1C(F)F)N1CCc2[nH]cnc2[C@H]1c1nc2cccc(C(F)(F)F)c2o1 [Example 493, (S)-(4-(difluoromethyl)oxazol-5-yl)(4-(7-(trifluoromethyl)benzo[d]oxazol-2-yl)-6,7-dihydro-1H-imidazo[4,5-c]pyridin-5(4H)-yl)methanone] | ≤ 0.5 |
| Cn1nc(C2CC2)nc1C(=O)N1CCc2[nH]cnc2[C@H]1c1nc2cccc(F)c2o1 [Example 497, (S)-(3-cyclopropyl-1-methyl-1H-1,2,4-triazol-5-yl)(4-(7-fluorobenzo[d]oxazol-2-yl)-6,7-dihydro-1H-imidazo[4,5-c]pyridin-5(4H)-yl)methanone] | 1 to 5 |
| Cc1ncoc1C(=O)N1CCc2[nH]cnc2[C@@H]1c1nc2cccc(F)c2o1 [Example 570, (R)-(4-(7-fluorobenzo[d]oxazol-2-yl)-6,7-dihydro-1H-imidazo[4,5-c]pyridin-5(4H)-yl)(4-methyloxazol-5-yl)methanone] | 1 to 5 |
| O=C(c1nnc(-c2cccnc2)o1)N1CCc2[nH]cnc2[C@H]1c1nc2cc(F)ccc2o1 [Example 399, (S)-(4-(5-fluorobenzo[d]oxazol-2-yl)-6,7-dihydro-1H-imidazo[4,5-c]pyridin-5(4H)-yl)(5-(pyridin-3-yl)-1,3,4-oxadiazol-2-yl)methanone] | 0.5 to 1 |
| COc1cccc2nc([C@@H]3c4nc[nH]c4CCN3C(=O)c3cc(C(F)F)nn3C)oc12 [Example 777, (S)-(3-(difluoromethyl)-1-methyl-1H-pyrazol-5-yl)(4-(7-methoxybenzo[d]oxazol-2-yl)-6,7-dihydro-1H-imidazo[4,5-c]pyridin-5(4H)-yl)methanone] | ≤ 0.5 |
| CC1CN(C(=O)c2ocnc2C(F)F)[C@H](c2nc3cccc(F)c3o2)c2nc[nH]c21 (single isomer, unassigned) [Example 804] | ≤ 0.5 |
| Cn1nc(C(F)F)nc1C(=O)N1CCc2[nH]cnc2[C@@H]1c1nc2c(F)ccc(F)c2o1 [Example 485, (R)-(4-(4,7-difluorobenzo[d]oxazol-2-yl)-6,7-dihydro-1H-imidazo[4,5-c]pyridin-5(4H)-yl)(3-(difluoromethyl)-1-methyl-1H-1,2,4-triazol-5-yl)methanone] | 1 to 5 |
| O=C(c1ocnc1CC(F)F)N1CCc2[nH]cnc2[C@@H]1c1nc2cccc(F)c2o1 [Example 864, (R)-(4-(2,2-difluoroethyl)oxazol-5-yl)(4-(7-fluorobenzo[d]oxazol-2-yl)-6,7-dihydro-1H-imidazo[4,5-c]pyridin-5(4H)-yl)methanone] | ≤ 0.5 |
| Cn1cc(-c2ccc3c(C(=O)N4CCc5[nH]cnc5[C@@H]4c4nc5cc(F)ccc5o4)cnn3c2)cn1 [Example 72, (R)-(4-(5-fluorobenzo[d]oxazol-2-yl)-6,7-dihydro-1H-imidazo[4,5-c]pyridin-5(4H)-yl)(6-(1-methyl-1H-pyrazol-4-yl)pyrazolo[1,5-a]pyridin-3-yl)methanone] | ≥ 5 |
| COc1cccc2oc([C@@H]3c4nc[nH]c4CCN3C(=O)c3nnc(-c4cnn(C)c4)o3)nc12 [Example 626, (S)-(4-(4-methoxybenzo[d]oxazol-2-yl)-6,7-dihydro-1H-imidazo[4,5-c]pyridin-5(4H)-yl)(5-(1-methyl-1H-pyrazol-4-yl)-1,3,4-oxadiazol-2-yl)methanone] | ≤ 0.5 |
| O=C(c1ccnn1CC(F)F)N1CCc2[nH]cnc2[C@@H]1c1nc2ccccc2o1 [Example 836, (R)-(4-(benzo[d]oxazol-2-yl)-6,7-dihydro-1H-imidazo[4,5-c]pyridin-5(4H)-yl)(1-(2,2-difluoroethyl)-1H-pyrazol-5-yl)methanone] | 0.5 to 1 |
| O=C(c1oc(COC(F)(F)F)nc1C(F)F)N1CCc2[nH]cnc2[C@@H]1c1nc2cc(F)ccc2o1 [Example 116, (R)-(4-(difluoromethyl)-2-((trifluoromethoxy)methyl)oxazol-5-yl)(4-(5-fluorobenzo[d]oxazol-2-yl)-6,7-dihydro-1H-imidazo[4,5-c]pyridin-5(4H)-yl)methanone] | 1 to 5 |
| O=C(c1oc(-c2ccccn2)nc1C(F)F)N1CCc2[nH]cnc2[C@H]1c1nc2ccccc2o1 [Example 740, (S)-(4-(benzo[d]oxazol-2-yl)-6,7-dihydro-1H-imidazo[4,5-c]pyridin-5(4H)-yl)(4-(difluoromethyl)-2-(pyridin-2-yl)oxazol-5-yl)methanone] | ≤ 0.5 |
| Cc1cccc2nc([C@@H]3c4nc[nH]c4CCN3C(=O)c3ccnn3C(F)F)oc12 [Example 919, (S)-(1-(difluoromethyl)-1H-pyrazol-5-yl)(4-(7-methylbenzo[d]oxazol-2-yl)-6,7-dihydro-1H-imidazo[4,5-c]pyridin-5(4H)-yl)methanone] | ≤ 0.5 |
| Cc1cc(C(=O)N2CCc3[nH]cnc3[C@H]2c2nc3cccc(F)c3o2)n(C)n1 [Example 769, (S)-(1,3-dimethyl-1H-pyrazol-5-yl)(4-(7-fluorobenzo[d]oxazol-2-yl)-6,7-dihydro-1H-imidazo[4,5-c]pyridin-5(4H)-yl)methanone] | 1 to 5 |
| Cn1nccc1-c1nnc(C(=O)N2CCc3[nH]cnc3[C@H]2c2nc3cc(F)ccc3o2)o1 [Example 131, (S)-(4-(5-fluorobenzo[d]oxazol-2-yl)-6,7-dihydro-1H-imidazo[4,5-c]pyridin-5(4H)-yl)(5-(1-methyl-1H-pyrazol-5-yl)-1,3,4-oxadiazol-2-yl)methanone] | 0.5 to 1 |
| O=C(c1nnc(-c2ncccc2F)o1)N1CCc2[nH]cnc2[C@@H]1c1nc2ccccc2o1 [Example 834, (R)-(4-(benzo[d]oxazol-2-yl)-6,7-dihydro-1H-imidazo[4,5-c]pyridin-5(4H)-yl)(5-(3-fluoropyridin-2-yl)-1,3,4-oxadiazol-2-yl)methanone] | 0.5 to 1 |
| O=C(c1oc(-c2ccncn2)nc1C(F)F)N1CCc2[nH]cnc2[C@@H]1c1nc2cccc(F)c2o1 [Example 774, (R)-(4-(difluoromethyl)-2-(pyrimidin-4-yl)oxazol-5-yl)(4-(7-fluorobenzo[d]oxazol-2-yl)-6,7-dihydro-1H-imidazo[4,5-c]pyridin-5(4H)-yl)methanone] | ≤ 0.5 |
| Cn1cc(-c2nnc(C(=O)N3CCc4[nH]cnc4[C@H]3c3nc4c(F)c(F)ccc4o3)o2)cn1 [Example 645, (S)-(4-(4,5-difluorobenzo[d]oxazol-2-yl)-6,7-dihydro-1H-imidazo[4,5-c]pyridin-5(4H)-yl)(5-(1-methyl-1H-pyrazol-4-yl)-1,3,4-oxadiazol-2-yl)methanone] | 1 to 5 |
| O=C(c1oc(-c2cncnc2)nc1C(F)F)N1CCc2[nH]cnc2[C@@H]1c1nc2cccc(F)c2o1 [Example 741, (R)-(4-(difluoromethyl)-2-(pyrimidin-5-yl)oxazol-5-yl)(4-(7-fluorobenzo[d]oxazol-2-yl)-6,7-dihydro-1H-imidazo[4,5-c]pyridin-5(4H)-yl)methanone] | ≤ 0.5 |
| CC(C)(O)c1nc(C(F)F)c(C(=O)N2CCc3[nH]cnc3[C@H]2c2nc3c(OC(F)(F)F)cccc3o2)o1 [Example 533, (S)-(4-(difluoromethyl)-2-(2-hydroxypropan-2-yl)oxazol-5-yl)(4-(4-(trifluoromethoxy)benzo[d]oxazol-2-yl)-6,7-dihydro-1H-imidazo[4,5-c]pyridin-5(4H)-yl)methanone] | ≤ 0.5 |
| O=C(c1ocnc1C(F)F)N1CCc2[nH]cnc2[C@H]1c1nc2cc(Cl)ccc2o1 [Example 378, (S)-(4-(5-chlorobenzo[d]oxazol-2-yl)-6,7-dihydro-1H-imidazo[4,5-c]pyridin-5(4H)-yl)(4-(difluoromethyl)oxazol-5-yl)methanone] | ≤ 0.5 |
| O=C(c1cnn2cc(Br)c(Cl)cc12)N1CCc2[nH]cnc2[C@@H]1c1nc2cc(F)ccc2o1 [Example 166, (R)-(6-bromo-5-chloropyrazolo[1,5-a]pyridin-3-yl)(4-(5-fluorobenzo[d]oxazol-2-yl)-6,7-dihydro-1H-imidazo[4,5-c]pyridin-5(4H)-yl)methanone] | ≥ 5 |

Same assay, conditions: A375 cells expressing R408W PAH; 24 hrs with compound, then 20 μM sepiapterin and 800 μM 13C9,15N-Phenylalanine for 4 hours; 13C-Tyrosine by LC-MS; average where tested multiple times

| Structure (SMILES) | AC50 [µM] |
| --- | --- |
| CN(C)Cc1ccc2c(C(=O)N3CCc4[nH]cnc4C3c3nc4cc(F)ccc4o3)cnn2c1 (stereo not shown) | ≥ 5 |
| O=C(c1cnn2cc(N3CCC4(CC3)CC4)ccc12)N1CCc2[nH]cnc2C1c1nc2cc(F)ccc2o1 (stereo not shown) | 1 to 5 |
| Cn1cnnc1C(=O)N1CCc2[nH]cnc2C1c1nc2cccc(F)c2o1 (stereo not shown) | 1 to 5 |
| O=C(c1ccn(-c2ccccn2)n1)N1CCc2[nH]cnc2C1c1nc2ccccc2o1 (stereo not shown) | 1 to 5 |
| CC(C)(O)c1cc(C(=O)N2CCc3[nH]cnc3C2c2nc3ccc(F)cc3o2)on1 (stereo not shown) | 1 to 5 |
| O=C(c1cn[nH]c1C(F)F)N1CCc2[nH]cnc2C1c1nc2cc(F)ccc2o1 (stereo not shown) | 1 to 5 |
| CC(C)(C)OC(=O)N1CCN(c2ccc3c(C(=O)N4CCc5[nH]cnc5C4c4nc5cc(F)ccc5o4)cnn3c2)CC1 (single isomer, unassigned) [4R enantiomer of tert-butyl 4-{3-[4-(5-fluoro-1,3-benzoxazol] | ≥ 5 |
